Measurements as given in patent EP4722207A1, “OXOISOINDOLINYL-SUBSTITUTED TETRAHYDROPYRIMIDINEDIONE DERIVATIVE AND USE THEREOF” (Gluetacs Therapeutics (Shanghai) Co., Ltd., priority 2023, dated 2024).

Columns and labels:
Format in all cases: cell-based
IKZF2 = target: T1, IKZF2 (Homo sapiens, UniProt Q96SW2+Q9UKS7); experiment: Western-blot assay, substrate protein degradation in hPBMCs: IKZF2; details: for IKZF2 substrate protein remaining %: compounds at 50 nM and 500 nM, 24 hours; for substrate protein remaining % IKZF2: 24 hours of compound treatment, 50 nM and 500 nM
T1 construct: effects of the compounds of the present disclosure on the expression of target proteins in cells; endogenous in cells; host or cells: human PBMCs (hPBMCs)

GSPT1 = target: T2, GSPT1 (Homo sapiens, UniProt P15170+Q96SW2); experiment: Western-blot assay, substrate protein degradation in hPBMCs: GSPT1; details: for GSPT1 substrate protein remaining %: compounds at 50 nM and 500 nM, 24 hours; for substrate protein remaining % GSPT1: 24 hours of compound treatment, 50 nM and 500 nM
T2 construct: effects of the compounds of the present disclosure on the expression of target proteins in cells; endogenous in cells; host or cells: human PBMCs (hPBMCs)

WEE1 = target: T3, WEE1 (Homo sapiens, UniProt P30291+Q96SW2); experiment: Western-blot assay, substrate protein degradation in hPBMCs: WEE1; details: for WEE1 substrate protein remaining %: compounds at 50 nM and 500 nM, 24 hours; for substrate protein remaining % WEE1: 24 hours of compound treatment, 50 nM and 500 nM
T3 construct: effects of the compounds of the present disclosure on the expression of target proteins in cells; endogenous in cells; host or cells: human PBMCs (hPBMCs)

IKZF1 = target: T4, IKZF1 (Homo sapiens, UniProt Q13422+Q96SW2); experiment: Western-blot assay, substrate protein degradation in hPBMCs: IKZF1; details: for IKZF1 substrate protein remaining %: compounds at 50 nM and 500 nM, 24 hours; for substrate protein remaining % IKZF1: 24 hours of compound treatment, 50 nM and 500 nM
T4 construct: effects of the compounds of the present disclosure on the expression of target proteins in cells; endogenous in cells; host or cells: human PBMCs (hPBMCs)

IKZF3 = target: T5, IKZF3 (Homo sapiens, UniProt Q96SW2+Q9UKT9); experiment: Western-blot assay, substrate protein degradation in hPBMCs: IKZF3; details: for IKZF3 substrate protein remaining %: compounds at 50 nM and 500 nM, 24 hours; for substrate protein remaining % IKZF3: 24 hours of compound treatment, 50 nM and 500 nM
T5 construct: effects of the compounds of the present disclosure on the expression of target proteins in cells; endogenous in cells; host or cells: human PBMCs (hPBMCs)

CK1α = target: T6, CK1α (Homo sapiens, UniProt P48729+Q96SW2); experiment: Western-blot assay, substrate protein degradation in hPBMCs: CK1α; details: for CK1α substrate protein remaining %: compounds at 50 nM and 500 nM, 24 hours; for substrate protein remaining % CK1α: 24 hours of compound treatment, 50 nM and 500 nM
T6 construct: effects of the compounds of the present disclosure on the expression of target proteins in cells; endogenous in cells; host or cells: human PBMCs (hPBMCs)

T5 sequence (Q9UKT9 whole entry): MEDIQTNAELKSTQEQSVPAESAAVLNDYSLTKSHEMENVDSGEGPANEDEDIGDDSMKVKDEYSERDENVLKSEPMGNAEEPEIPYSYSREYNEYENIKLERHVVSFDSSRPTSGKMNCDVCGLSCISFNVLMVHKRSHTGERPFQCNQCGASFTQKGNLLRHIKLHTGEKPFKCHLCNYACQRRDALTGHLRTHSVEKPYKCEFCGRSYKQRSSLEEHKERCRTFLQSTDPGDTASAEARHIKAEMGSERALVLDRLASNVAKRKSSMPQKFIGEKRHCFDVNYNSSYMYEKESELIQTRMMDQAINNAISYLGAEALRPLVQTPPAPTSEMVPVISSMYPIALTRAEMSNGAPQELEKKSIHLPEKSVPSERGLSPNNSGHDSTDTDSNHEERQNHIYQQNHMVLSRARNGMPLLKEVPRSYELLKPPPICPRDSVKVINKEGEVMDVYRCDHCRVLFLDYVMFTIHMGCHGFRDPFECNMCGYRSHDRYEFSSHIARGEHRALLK
T5 sequence (Q96SW2 whole entry): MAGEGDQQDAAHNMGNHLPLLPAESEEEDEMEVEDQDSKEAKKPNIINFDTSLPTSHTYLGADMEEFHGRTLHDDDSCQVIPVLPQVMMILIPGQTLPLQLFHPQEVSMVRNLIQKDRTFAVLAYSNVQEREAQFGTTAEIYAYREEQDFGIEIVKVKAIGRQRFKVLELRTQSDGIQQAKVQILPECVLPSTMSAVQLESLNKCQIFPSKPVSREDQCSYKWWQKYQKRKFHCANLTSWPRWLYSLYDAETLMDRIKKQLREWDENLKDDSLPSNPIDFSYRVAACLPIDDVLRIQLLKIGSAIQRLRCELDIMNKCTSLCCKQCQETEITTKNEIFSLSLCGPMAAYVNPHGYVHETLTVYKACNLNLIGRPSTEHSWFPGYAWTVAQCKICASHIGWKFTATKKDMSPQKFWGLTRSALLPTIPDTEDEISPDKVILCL
T5 sequence (Q16531 whole entry partner): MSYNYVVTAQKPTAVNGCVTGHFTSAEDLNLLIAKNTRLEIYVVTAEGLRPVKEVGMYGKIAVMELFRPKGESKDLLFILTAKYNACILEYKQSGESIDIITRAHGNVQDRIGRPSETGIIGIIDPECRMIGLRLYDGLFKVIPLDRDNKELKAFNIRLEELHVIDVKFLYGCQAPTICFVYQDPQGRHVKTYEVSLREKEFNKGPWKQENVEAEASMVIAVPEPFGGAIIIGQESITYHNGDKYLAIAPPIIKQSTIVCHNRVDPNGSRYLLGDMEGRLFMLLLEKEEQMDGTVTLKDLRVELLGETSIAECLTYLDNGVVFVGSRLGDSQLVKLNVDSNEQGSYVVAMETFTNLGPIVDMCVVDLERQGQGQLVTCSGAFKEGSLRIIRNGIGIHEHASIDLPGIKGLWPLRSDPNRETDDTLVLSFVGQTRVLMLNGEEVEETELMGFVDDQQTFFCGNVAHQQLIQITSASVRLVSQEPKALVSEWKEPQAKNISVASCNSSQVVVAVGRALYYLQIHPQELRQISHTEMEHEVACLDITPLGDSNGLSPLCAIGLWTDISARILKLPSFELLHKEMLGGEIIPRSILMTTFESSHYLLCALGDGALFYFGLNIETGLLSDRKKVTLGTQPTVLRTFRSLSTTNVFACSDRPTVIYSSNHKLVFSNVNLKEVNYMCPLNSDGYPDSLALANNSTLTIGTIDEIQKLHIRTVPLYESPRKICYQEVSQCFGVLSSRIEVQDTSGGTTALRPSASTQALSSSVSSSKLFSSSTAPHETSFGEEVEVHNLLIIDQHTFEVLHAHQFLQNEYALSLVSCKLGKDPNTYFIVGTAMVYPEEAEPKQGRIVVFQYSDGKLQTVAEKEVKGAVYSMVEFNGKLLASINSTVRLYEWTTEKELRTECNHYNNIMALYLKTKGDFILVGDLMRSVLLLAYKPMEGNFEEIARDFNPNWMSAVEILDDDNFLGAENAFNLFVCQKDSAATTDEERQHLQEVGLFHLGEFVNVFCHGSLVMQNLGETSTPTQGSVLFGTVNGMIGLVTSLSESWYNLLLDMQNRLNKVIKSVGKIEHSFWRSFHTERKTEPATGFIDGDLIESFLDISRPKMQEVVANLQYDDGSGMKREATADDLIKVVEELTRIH
T3 sequence (P30291 whole entry): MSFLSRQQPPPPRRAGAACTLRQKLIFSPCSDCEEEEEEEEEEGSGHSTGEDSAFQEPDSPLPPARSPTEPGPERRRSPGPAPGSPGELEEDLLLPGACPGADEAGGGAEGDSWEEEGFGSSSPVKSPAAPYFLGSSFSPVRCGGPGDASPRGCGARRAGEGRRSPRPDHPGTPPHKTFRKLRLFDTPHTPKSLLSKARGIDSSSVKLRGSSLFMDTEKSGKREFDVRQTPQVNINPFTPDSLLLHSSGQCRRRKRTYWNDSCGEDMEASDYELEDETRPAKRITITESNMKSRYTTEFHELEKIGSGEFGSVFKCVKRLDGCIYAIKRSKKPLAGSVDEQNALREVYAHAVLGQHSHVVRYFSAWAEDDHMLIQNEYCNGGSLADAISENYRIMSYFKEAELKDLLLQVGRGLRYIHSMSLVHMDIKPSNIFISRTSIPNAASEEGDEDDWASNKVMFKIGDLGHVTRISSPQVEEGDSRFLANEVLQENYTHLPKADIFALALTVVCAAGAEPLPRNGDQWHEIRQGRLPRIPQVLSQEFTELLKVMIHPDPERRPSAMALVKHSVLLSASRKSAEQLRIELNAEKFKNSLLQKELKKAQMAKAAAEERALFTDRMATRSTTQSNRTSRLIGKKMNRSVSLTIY
T3 sequence (Q96SW2 whole entry): as the sequence (Q96SW2 whole entry) above
T3 sequence (Q16531 whole entry partner): as the sequence (Q16531 whole entry partner) above
T2 sequence (P15170 whole entry): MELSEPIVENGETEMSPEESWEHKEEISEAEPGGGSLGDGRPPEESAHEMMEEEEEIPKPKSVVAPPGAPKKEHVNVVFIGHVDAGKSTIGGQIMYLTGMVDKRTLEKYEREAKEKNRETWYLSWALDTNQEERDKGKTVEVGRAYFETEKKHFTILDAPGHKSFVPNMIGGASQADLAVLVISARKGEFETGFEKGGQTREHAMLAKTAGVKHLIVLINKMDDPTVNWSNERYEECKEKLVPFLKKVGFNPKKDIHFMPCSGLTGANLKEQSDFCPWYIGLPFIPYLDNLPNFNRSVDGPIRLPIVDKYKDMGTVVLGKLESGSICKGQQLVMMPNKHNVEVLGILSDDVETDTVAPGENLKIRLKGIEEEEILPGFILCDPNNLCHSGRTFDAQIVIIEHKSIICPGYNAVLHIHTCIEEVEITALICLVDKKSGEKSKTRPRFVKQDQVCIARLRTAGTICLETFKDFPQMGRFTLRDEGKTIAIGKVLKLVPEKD
T2 sequence (Q96SW2 whole entry): as the sequence (Q96SW2 whole entry) above
T2 sequence (Q16531 whole entry partner): as the sequence (Q16531 whole entry partner) above
T4 sequence (Q13422 whole entry): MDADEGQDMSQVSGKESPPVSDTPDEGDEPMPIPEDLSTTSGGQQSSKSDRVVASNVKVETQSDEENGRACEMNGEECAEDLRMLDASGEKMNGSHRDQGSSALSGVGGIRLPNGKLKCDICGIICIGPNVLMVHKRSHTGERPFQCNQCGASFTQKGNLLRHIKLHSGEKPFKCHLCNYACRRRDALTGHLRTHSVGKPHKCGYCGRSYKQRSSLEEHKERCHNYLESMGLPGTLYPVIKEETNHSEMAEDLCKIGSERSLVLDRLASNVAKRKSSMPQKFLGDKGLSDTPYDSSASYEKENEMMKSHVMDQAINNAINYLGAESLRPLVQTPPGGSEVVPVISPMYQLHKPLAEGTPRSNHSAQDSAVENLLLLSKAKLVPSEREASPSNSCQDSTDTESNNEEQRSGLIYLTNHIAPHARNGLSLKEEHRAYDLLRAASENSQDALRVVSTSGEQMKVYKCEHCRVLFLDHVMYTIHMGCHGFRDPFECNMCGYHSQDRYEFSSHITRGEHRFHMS
T4 sequence (Q96SW2 whole entry): as the sequence (Q96SW2 whole entry) above
T4 sequence (Q16531 whole entry partner): as the sequence (Q16531 whole entry partner) above
T1 sequence (Q9UKS7 whole entry): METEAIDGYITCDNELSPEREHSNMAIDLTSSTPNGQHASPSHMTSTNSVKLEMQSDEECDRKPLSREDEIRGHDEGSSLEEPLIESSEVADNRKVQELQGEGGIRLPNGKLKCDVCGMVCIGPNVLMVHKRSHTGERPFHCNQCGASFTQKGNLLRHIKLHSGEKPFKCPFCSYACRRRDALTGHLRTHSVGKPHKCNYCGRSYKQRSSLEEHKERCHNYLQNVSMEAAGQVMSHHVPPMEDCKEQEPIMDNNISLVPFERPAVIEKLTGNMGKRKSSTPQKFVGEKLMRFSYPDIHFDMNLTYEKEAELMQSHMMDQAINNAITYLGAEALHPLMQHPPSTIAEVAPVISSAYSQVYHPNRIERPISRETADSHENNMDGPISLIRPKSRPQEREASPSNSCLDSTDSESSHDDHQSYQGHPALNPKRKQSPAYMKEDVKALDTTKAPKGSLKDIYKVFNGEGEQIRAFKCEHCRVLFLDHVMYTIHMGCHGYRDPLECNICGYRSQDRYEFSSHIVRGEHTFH
T1 sequence (Q96SW2 whole entry): as the sequence (Q96SW2 whole entry) above
T1 sequence (Q16531 whole entry partner): as the sequence (Q16531 whole entry partner) above

How did the “IKZF2 substrate protein remaining %” value (IKZF2) turn out when `O=C1CCN(N2C(=O)c3ccc(CN4CC5CCC(C4)N5C(c4ccccc4)c4ccccc4)cc3C2=O)C(=O)N1` [GT-06453, 5-((8-benzhydryl-3,8-diazabicyclo[3.2.1]octan-3-yl)methyl)-2-(2,4-dioxotetrahydropyrimidin-1(2H)-yl)isoindoline-1,3-dione] was run?
The value was “A ("A" is defined as 0% ≤ substrate protein remaining % ≤ 80%)”.

What about the “GSPT1 substrate protein remaining %” value (GSPT1) of the same compound?
The value was “B ("B" is defined as 80%< substrate protein remaining %≤ 100%)”.

What about the “WEE1 substrate protein remaining %” value (WEE1) of the same compound?
Its value is “B ("B" is defined as 80%< substrate protein remaining %≤ 100%)”.

And the “IKZF1 substrate protein remaining %” value (IKZF1)?
The value was “B ("B" is defined as 80%< substrate protein remaining %≤ 100%)”.

And the “IKZF3 substrate protein remaining %” value (IKZF3)?
The value was “B ("B" is defined as 80%< substrate protein remaining %≤ 100%)”.

And the “CK1α substrate protein remaining %” value (CK1α)?
Its value is “B ("B" is defined as 80%< substrate protein remaining %≤ 100%)”.

With `O=C1CCN(N2Cc3cc(CN4CCN(c5c(Cl)cccc5Cl)CC4)ccc3C2=O)C(=O)N1` [GT-06774, 1-(5-((4-(2,6-dichlorophenyl)piperazin-1-yl)methyl)-1-oxoisoindolin-2-yl)dihydropyrimidine-2,4(1H,3H)-dione] as the compound, how does the “IKZF2 substrate protein remaining %” value (IKZF2) read?
The value was “A ("A" is defined as 0% ≤ substrate protein remaining % ≤ 80%)”.

What about the “GSPT1 substrate protein remaining %” value (GSPT1) of the same compound?
Its value is “A ("A" is defined as 0% ≤ substrate protein remaining % ≤ 80%)”.

What about the “WEE1 substrate protein remaining %” value (WEE1) of the same compound?
Its value is “B ("B" is defined as 80%< substrate protein remaining %≤ 100%)”.

And the “IKZF1 substrate protein remaining %” value (IKZF1)?
Its value is “B ("B" is defined as 80%< substrate protein remaining %≤ 100%)”.

What about the “IKZF3 substrate protein remaining %” value (IKZF3) of the same compound?
The value was “A ("A" is defined as 0% ≤ substrate protein remaining % ≤ 80%)”.

What about the “CK1α substrate protein remaining %” value (CK1α) of the same compound?
The value was “A ("A" is defined as 0% ≤ substrate protein remaining % ≤ 80%)”.

How did the “IKZF2 substrate protein remaining %” value (IKZF2) turn out when `O=C1CCN(N2Cc3cc(CN4CCC(c5ccccc5Cl)CC4)ccc3C2=O)C(=O)N1` [GT-06887, 1-(5-((4-(2-chlorophenyl)piperidin-1-yl)methyl)-1-oxoisoindolin-2-yl)dihydropyrimidine-2,4(1H,3H)-dione] was run?
Its value is “A ("A" is defined as 0% ≤ substrate protein remaining % ≤ 80%)”.

And the “GSPT1 substrate protein remaining %” value (GSPT1)?
Its value is “A ("A" is defined as 0% ≤ substrate protein remaining % ≤ 80%)”.

What about the “WEE1 substrate protein remaining %” value (WEE1) of the same compound?
Its value is “A ("A" is defined as 0% ≤ substrate protein remaining % ≤ 80%)”.

And the “IKZF1 substrate protein remaining %” value (IKZF1)?
Its value is “B ("B" is defined as 80%< substrate protein remaining %≤ 100%)”.

And the “IKZF3 substrate protein remaining %” value (IKZF3)?
Its value is “B ("B" is defined as 80%< substrate protein remaining %≤ 100%)”.

And the “CK1α substrate protein remaining %” value (CK1α)?
The value was “B ("B" is defined as 80%< substrate protein remaining %≤ 100%)”.

For `CC1(C)CCC(CN2CC3CCC(C2)N3Cc2ccc3c(c2)C(=O)N(N2CCC(=O)NC2=O)C3=O)=C(c2ccc(Cl)cc2)C1` [GT-07333, 5-((3-((4'-chloro-5,5-dimethyl-3,4,5,6-tetrahydro-[1,1'-biphenyl]-2-yl)methyl)-3,8-diazabicyclo[3.2.1]octan-8-yl)methyl)-2-(2,4-dioxotetrahydropyrimidin-1(2H)-yl)isoindoline-1,3-dione], which “substrate protein remaining % IKZF2” value (IKZF2) is on record?
The value was “B (80%< substrate protein remaining %≤ 100%)”.

What about the “substrate protein remaining % GSPT1” value (GSPT1) of the same compound?
Its value is “A (0% ≤ substrate protein remaining % ≤ 80%)”.

What about the “substrate protein remaining % WEE1” value (WEE1) of the same compound?
Its value is “B (80%< substrate protein remaining %≤ 100%)”.

And the “substrate protein remaining % IKZF1” value (IKZF1)?
The value was “B (80%< substrate protein remaining %≤ 100%)”.

And the “substrate protein remaining % IKZF3” value (IKZF3)?
The value was “B (80%< substrate protein remaining %≤ 100%)”.

And the “substrate protein remaining % CK1α” value (CK1α)?
The value was “B (80%< substrate protein remaining %≤ 100%)”.

Which “substrate protein remaining % IKZF2” value (IKZF2) does the source give for `O=C1CCN(N2C(=O)c3ccc(CN4CCN(c5n[nH]c6cc(F)ccc56)CC4)cc3C2=O)C(=O)N1` [GT-07527, 2-(2,4-dioxotetrahydropyrimidin-1(2H)-yl)-5-((4-(6-fluoro-1H-indazol-3-yl)piperazin-1-yl)methyl)isoindoline-1,3-dione] here?
The value was “B (80%< substrate protein remaining %≤ 100%)”.

And the “substrate protein remaining % GSPT1” value (GSPT1)?
The value was “A (0% ≤ substrate protein remaining % ≤ 80%)”.

What about the “substrate protein remaining % WEE1” value (WEE1) of the same compound?
The value was “B (80%< substrate protein remaining %≤ 100%)”.

What about the “substrate protein remaining % IKZF1” value (IKZF1) of the same compound?
The value was “B (80%< substrate protein remaining %≤ 100%)”.

And the “substrate protein remaining % IKZF3” value (IKZF3)?
Its value is “B (80%< substrate protein remaining %≤ 100%)”.

What about the “substrate protein remaining % CK1α” value (CK1α) of the same compound?
The value was “A (0% ≤ substrate protein remaining % ≤ 80%)”.

Which results are given for `CC1CN(Cc2ccc3c(c2)CN(N2CCC(=O)NC2=O)C3=O)CC(C)N1C(c1ccccc1)c1ccccc1` (stereo not drawn) [GT-06431, 1-(5-((4-benzhydryl-3,5-dimethylpiperazin-1-yl)methyl)-1-oxoisoindolin-2-yl)dihydropyrimidine-2,4(1H,3H)-dione]?
IKZF2 substrate protein remaining % (IKZF2): A ("A" is defined as 0% ≤ substrate protein remaining % ≤ 80%); GSPT1 substrate protein remaining % (GSPT1): A ("A" is defined as 0% ≤ substrate protein remaining % ≤ 80%); WEE1 substrate protein remaining % (WEE1): A ("A" is defined as 0% ≤ substrate protein remaining % ≤ 80%); IKZF1 substrate protein remaining % (IKZF1): A ("A" is defined as 0% ≤ substrate protein remaining % ≤ 80%); IKZF3 substrate protein remaining % (IKZF3): B ("B" is defined as 80%< substrate protein remaining %≤ 100%); CK1α substrate protein remaining % (CK1α): B ("B" is defined as 80%< substrate protein remaining %≤ 100%)

What does the source list for `O=C1CCN(N2C(=O)c3ccc(CN4CCN(c5ccnc(Cl)c5Br)CC4)cc3C2=O)C(=O)N1` [GT-07168, 5-((4-(3-bromo-2-chloropyridin-4-yl)piperazin-1-yl)methyl)-2-(2,4-dioxotetrahydropyrimidin-1(2H)-yl)isoindoline-1,3-dione]?
IKZF2 substrate protein remaining % (IKZF2): A ("A" is defined as 0% ≤ substrate protein remaining % ≤ 80%); GSPT1 substrate protein remaining % (GSPT1): A ("A" is defined as 0% ≤ substrate protein remaining % ≤ 80%); WEE1 substrate protein remaining % (WEE1): B ("B" is defined as 80%< substrate protein remaining %≤ 100%); IKZF1 substrate protein remaining % (IKZF1): B ("B" is defined as 80%< substrate protein remaining %≤ 100%); IKZF3 substrate protein remaining % (IKZF3): B ("B" is defined as 80%< substrate protein remaining %≤ 100%); CK1α substrate protein remaining % (CK1α): B ("B" is defined as 80%< substrate protein remaining %≤ 100%)

How did the “substrate protein remaining % IKZF2” value (IKZF2) turn out when `O=C1CCN(N2Cc3cc(CN4CCC(N5CCCc6cc(F)ccc65)CC4)ccc3C2=O)C(=O)N1` [GT-07584, 1-(5-((4-(6-fluoro-3,4-dihydroquinolin-1(2H)-yl)piperidin-1-yl)methyl)-1-oxoisoindolin-2-yl)dihydropyrimidine-2,4(1H,3H)-dione] was run?
The value was “B (80%< substrate protein remaining %≤ 100%)”.

What about the “substrate protein remaining % GSPT1” value (GSPT1) of the same compound?
The value was “A (0% ≤ substrate protein remaining % ≤ 80%)”.

And the “substrate protein remaining % WEE1” value (WEE1)?
Its value is “A (0% ≤ substrate protein remaining % ≤ 80%)”.

What about the “substrate protein remaining % IKZF1” value (IKZF1) of the same compound?
Its value is “A (0% ≤ substrate protein remaining % ≤ 80%)”.

And the “substrate protein remaining % IKZF3” value (IKZF3)?
The value was “B (80%< substrate protein remaining %≤ 100%)”.

What about the “substrate protein remaining % CK1α” value (CK1α) of the same compound?
Its value is “B (80%< substrate protein remaining %≤ 100%)”.
